Results on 25 molecules are retold here after patent US20240140957A1, “BRIDGED COMPOUNDS AS KRAS G12D INHIBITOR AND DEGRADER AND THE USE THEREOF” (BeiGene Switzerland GmbH, priority 2021, published 2024).

By IC50 is commonly meant the point on the concentration scale where inhibition reaches its midpoint.

SMILES strings stand for the structures.

The experiment deals with GDP-loaded KRAS G12D (Homo sapiens, UniProt P01116, G12D). Kind of experiment: KRAS G12D Probe Displacement Assay. The note with it: KRAS G12D 0.5 nM, biotinylated probe 2 4 nM; Table 6 letters; read-out: KRAS G12D Probe Displacement Assay IC50 (class). It counts as binding.
Sequence of GDP-loaded KRAS G12D (P01116 1-188 isoform P01116-2 G12D): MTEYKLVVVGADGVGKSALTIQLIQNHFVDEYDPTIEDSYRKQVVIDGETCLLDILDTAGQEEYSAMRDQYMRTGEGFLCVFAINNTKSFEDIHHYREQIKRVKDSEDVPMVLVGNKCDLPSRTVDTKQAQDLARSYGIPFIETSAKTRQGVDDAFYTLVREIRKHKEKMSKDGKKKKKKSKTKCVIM
`Nc1nc2c(-c3c(C(F)(F)F)cc4c(N5CC6CCC(C5)N6)nc(OCC5COC(=O)N5)nc4c3F)ccc(F)c2s1` (stereo not shown) [Example E170, 4-(((7-(2-amino-7-fluorobenzo[d]thiazol-4-yl)-4-(3,8-diazabicyclo [3.2.1]octan-3-yl)-8-fluoro-6-(trifluoromethyl)quinazolin-2-yl)oxy)methyl)oxazolidin-2-one]: the IC50 is below 50 nM. Then `Nc1nc2c(-c3c(C(F)(F)F)cc4c(N5CC6CCC(C5)N6)nc(OCC5CS(=O)(=O)C5)nc4c3F)ccc(F)c2s1` [Example E171], with below 50 nM.

On to `Nc1nc2c(-c3c(C(F)(F)F)cc4c(N5CC6CCC(C5)N6)nc(OCCC5(CCO)COC5)nc4c3F)ccc(F)c2s1` [Example E172, 2-(3-(2-((7-(2-amino-7-fluorobenzo[d]thiazol-4-yl)-4-(3,8-diazabicyclo[3.2.1]octan-3-yl)-8-fluoro-6-(trifluoromethyl)quinazolin-2-yl)oxy)ethyl)oxetan-3-yl) ethan-1-ol], for which the IC50 is below 50 nM. Then `Nc1nc2c(-c3c(C(F)(F)F)cc4c(N5CC6CCC(C5)N6)nc(OCC5CC(O)C5)nc4c3F)ccc(F)c2s1` (stereo not shown) [Example E173], with below 50 nM; and `CC12CC(COc3nc(N4CC5CCC(C4)N5)c4cc(C(F)(F)F)c(-c5ccc(F)c6sc(N)nc56)c(F)c4n3)(CO1)C2` [Example E174, 4-(4-(3,8-diazabicyclo[3.2.1]octan-3-yl)-8-fluoro-2-((1-methyl-2-oxabicyclo[2.1.1]hexan-4-yl)methoxy)-6-(trifluoromethyl)quinazolin-7-yl)-7-fluorobenzo[d] thiazol-2-amine], with below 50 nM; and `CS(=O)(=O)N1CC(COc2nc(N3CC4CCC(C3)N4)c3cc(C(F)(F)F)c(-c4ccc(F)c5sc(N)nc45)c(F)c3n2)C1` [Example E175, 4-(4-(3,8-diazabicyclo[3.2.1]octan-3-yl)-8-fluoro-2-((1-(methylsulfonyl)azetidin-3-yl)methoxy)-6-(trifluoromethyl)quinazolin-7-yl)-7-fluorobenzo[d]thiazol-2-amine], with below 50 nM. For `COC1(COc2nc(N3CC4CCC(C3)N4)c3cc(C(F)(F)F)c(-c4ccc(F)c5sc(N)nc45)c(F)c3n2)COC1` [Example E176, 4-(4-(3,8-diazabicyclo[3.2.1]octan-3-yl)-8-fluoro-2-((3-methoxyoxetan-3-yl)methoxy)-6-(trifluoromethyl)quinazolin-7-yl)-7-fluorobenzo[d] thiazol-2-amine], the concentration for half-maximal inhibition (IC50) is below 50 nM.

With `Nc1nc2c(-c3c(C(F)(F)F)cc4c(N5CC6CCC(C5)N6)nc(OC5CC(O)C5)nc4c3F)ccc(F)c2s1` (stereo not shown) [Example E177, 3-((7-(2-amino-7-fluorobenzo[d]thiazol-4-yl)-4-(3,8-diazabicyclo [3.2.1]octan-3-yl)-8-fluoro-6-(trifluoromethyl)quinazolin-2-yl)oxy)cyclobutan-1-ol], the half-maximal inhibitory concentration (IC50) was below 50 nM.

Consider `CN1CCCC(C#N)(COc2nc(N3CC4CCC(C3)N4)c3cc(Cl)c(-c4ccc(F)c5sc(N)nc45)c(F)c3n2)C1` (stereo not shown) [Example E178, 3-(((7-(2-amino-7-fluorobenzo[d]thiazol-4-yl)-4-(3,8-diazabicyclo [3.2.1]octan-3-yl)-6-chloro-8-fluoroquinazolin-2-yl)oxy)methyl)-1-methylpiperidine-3-carbonitrile], for which the IC50 was below 50 nM. Then `Nc1nc2c(-c3c(C(F)(F)F)cc4c(N5CC6CCC(C5)N6)nc(OC[C@H]5CNC(=O)CO5)nc4c3F)ccc(F)c2s1` [Example E179, (6R)-6-(((7-(2-amino-7-fluorobenzo[d]thiazol-4-yl)-4-(3,8-diazabicyclo[3.2.1]octan-3-yl)-8-fluoro-6-(trifluoromethyl)quinazolin-2-yl)oxy)methyl)morpholin-3-one], with below 50 nM. Then `CC(F)(F)C1(COc2nc(N3CC4CCC(C3)N4)c3cc(C(F)(F)F)c(-c4ccc(F)c5sc(N)nc45)c(F)c3n2)COC1` [Example E180, 4-(4-(3,8-diazabicyclo[3.2.1]octan-3-yl)-2-((3-(1,1-difluoroethyl)oxetan-3-yl)methoxy)-8-fluoro-6-(trifluoromethyl)quinazolin-7-yl)-7-fluorobenzo[d]thiazol-2-amine], with below 50 nM; and `CC1(COc2nc(N3CC4CCC(C3)N4)c3cc(C(F)(F)F)c(-c4ccc(F)c5sc(N)nc45)c(F)c3n2)CCOC1` (stereo not shown) [Example E181, 4-(4-(3,8-diazabicyclo[3.2.1]octan-3-yl)-8-fluoro-2-((3-methyltetrahydrofuran-3-yl)methoxy)-6-(trifluoromethyl)quinazolin-7-yl)-7-fluorobenzo[d]thiazol-2-amine], with below 50 nM. Then `CC1(COc2nc(N3CC4CCC(C3)N4)c3cc(C(F)(F)F)c(-c4ccc(F)c5sc(N)nc45)c(F)c3n2)CCOCC1` [Example E182, 4-(4-(3,8-diazabicyclo[3.2.1]octan-3-yl)-8-fluoro-2-((4-methyltetra hydro-2H-pyran-4-yl)methoxy)-6-(trifluoromethyl)quinazolin-7-yl)-7-fluorobenzo[d]thiazol-2-amine], with below 50 nM.

As to `CC1(COc2nc(N3CC4CCC(C3)N4)c3cc(C(F)(F)F)c(-c4ccc(F)c5sc(N)nc45)c(F)c3n2)CCCOC1` (stereo not shown) [Example E183, 4-(4-(3,8-diazabicyclo[3.2.1]octan-3-yl)-8-fluoro-2-((3-methyltetra hydro-2H-pyran-3-yl)methoxy)-6-(trifluoromethyl)quinazolin-7-yl)-7-fluorobenzo[d]thiazol-2-amine], the IC50 was below 50 nM. Regarding `Nc1nc2c(-c3c(C(F)(F)F)cc4c(N5CC6CCC(C5)N6)nc(OCCc5cccnc5)nc4c3F)ccc(F)c2s1` [Example E184, 4-(4-(3,8-diazabicyclo[3.2.1]octan-3-yl)-8-fluoro-2-(2-(pyridin-3-yl)ethoxy)-6-(trifluoromethyl)quinazolin-7-yl)-7-fluorobenzo [d]thiazol-2-amine], the IC50 is below 50 nM. Then `Nc1nc2c(-c3c(C(F)(F)F)cc4c(N5CC6CCC(C5)N6)nc(OCCn5cccn5)nc4c3F)ccc(F)c2s1` [Example E185, 4-(2-(2-(1H-pyrazol-1-yl)ethoxy)-4-(3,8-diazabicyclo[3.2.1]octan-3-yl)-8-fluoro-6-(trifluoromethyl)quinazolin-7-yl)-7-fluorobenzo[d]thiazol-2-amine], with below 50 nM; and `N#CC12CC(COc3nc(N4CC5CCC(C4)N5)c4cc(C(F)(F)F)c(-c5ccc(F)c6sc(N)nc56)c(F)c4n3)(C1)C2` [Example E186, 3-(((7-(2-amino-7-fluorobenzo[d]thiazol-4-yl)-4-(3,8-diazabicyclo [3.2.1]octan-3-yl)-8-fluoro-6-(trifluoromethyl)quinazolin-2-yl)oxy)methyl)bicyclo[1.1.1] pentane-1-carbonitrile], with below 50 nM; and `Nc1nc2c(-c3c(C(F)(F)F)cc4c(N5CC6CCC(C5)N6)nc(OCC5(CO)CCOCC5)nc4c3F)ccc(F)c2s1` [Example E187, (4-(((7-(2-amino-7-fluorobenzo[d]thiazol-4-yl)-4-(3,8-diazabicyclo[3.2.1]octan-3-yl)-8-fluoro-6-(trifluoromethyl)quinazolin-2-yl)oxy)methyl)tetrahydro-2H-pyran-4-yl)methanol], with below 50 nM. Then `N#Cc1cncc(CCOc2nc(N3CC4CCC(C3)N4)c3cc(C(F)(F)F)c(-c4ccc(F)c5sc(N)nc45)c(F)c3n2)c1` [Example E188, 5-(2-((7-(2-amino-7-fluorobenzo[d]thiazol-4-yl)-4-(3,8-diazabicyclo[3.2.1]octan-3-yl)-8-fluoro-6-(trifluoromethyl)quinazolin-2-yl)oxy)ethyl) nicotinonitrile], with below 50 nM; and `Nc1nc2c(-c3c(C(F)(F)F)cc4c(N5CC6CCC(C5)N6)nc(OCCC5COC5)nc4c3F)ccc(F)c2s1` [Example E189, 4-(4-(3,8-diazabicyclo[3.2.1]octan-3-yl)-8-fluoro-2-(2-(oxetan-3-yl)ethoxy)-6-(trifluoromethyl)quinazolin-7-yl)-7-fluorobenzo[d]thiazol-2-amine], with below 50 nM.

`Nc1nc2c(-c3c(C(F)(F)F)cc4c(N5CC6CCC(C5)N6)nc(OCC5(CO)CCCC5)nc4c3F)ccc(F)c2s1` [Example E190, (1-(((7-(2-amino-7-fluorobenzo[d]thiazol-4-yl)-4-(3,8-diazabicyclo[3.2.1]octan-3-yl)-8-fluoro-6-(trifluoromethyl)quinazolin-2-yl)oxy)methyl)cyclopentyl)methanol]: the half-inhibitory concentration (IC50) was below 50 nM. Regarding `Nc1nc2c(-c3c(C(F)(F)F)cc4c(N5CC6CCC(C5)N6)nc(OCC5(CO)CCCCC5)nc4c3F)ccc(F)c2s1` [Example E191, (1-(((7-(2-amino-7-fluorobenzo[d]thiazol-4-yl)-4-(3,8-diazabicyclo[3.2.1]octan-3-yl)-8-fluoro-6-(trifluoromethyl)quinazolin-2-yl)oxy)methyl)cyclohexyl) methanol], the IC50 is below 50 nM. Then `N#CC1(COc2nc(N3CC4CCC(C3)N4)c3cc(C(F)(F)F)c(-c4ccc(F)c5sc(N)nc45)c(F)c3n2)CCCC1` [Example E192, 1-(((7-(2-amino-7-fluorobenzo[d]thiazol-4-yl)-4-(3,8-diazabicyclo [3.2.1]octan-3-yl)-8-fluoro-6-(trifluoromethyl)quinazolin-2-yl)oxy)methyl)cyclopentane-1-carbonitrile], with below 50 nM; and `Cc1cc(N)nc(-c2c(Cl)cc3c(N4CC5CCC(C4)N5)nc(OCC(C)(C)CO)nc3c2F)c1C(F)(F)F` [Example E193, 3-((7-(6-amino-4-methyl-3-(trifluoromethyl)pyridin-2-yl)-4-(3,8-diazabicyclo[3.2.1]octan-3-yl)-6-chloro-8-fluoroquinazolin-2-yl)oxy)-2,2-dimethylpropan-1-ol], with below 50 nM.

Regarding `Cc1cc(N)nc(-c2c(Cl)cc3c(N4CC5CCC(C4)N5)nc(OCC(C)(C)C#N)nc3c2F)c1C(F)(F)F` [Example E194, 3-((7-(6-amino-4-methyl-3-(trifluoromethyl)pyridin-2-yl)-4-(3,8-diazabicyclo[3.2.1]octan-3-yl)-6-chloro-8-fluoroquinazolin-2-yl)oxy)-2,2-dimethylpropanenitrile], the IC50 is below 50 nM.
